Patent US7405206B2, “Anti-inflammatory androstane derivatives” (Glaxo Group Limited, priority 2001, dated 2008)
pEC50: −log10 of the molar value.

Tests used:
[1] = test system: A549 cells stably transfected with a reporter gene containing the NF-κB responsive elements from the ELAM gene promoter coupled to sPAP; test: Functional in vitro assay of glucocorticoid agonist activity (NF-κB/ELAM-sPAP reporter, TNF stimulated); format: cell-based; conditions: compound 1 hour at 37° C., then TNF 10 ng/ml for 16 hours
Protocol: Pharmacological activity was assessed in a functional in vitro assay of glucocorticoid agonist activity which is generally predictive of anti-inflammatory or anti-allergic activity in vivo.
The functional assay was based on that described by K. P. Ray et al., Biochem J. (1997), 328, 707-715. A549 cells stably transfected with a reporter gene containing the NF-κB responsive elements from the ELAM gene promoter coupled to sPAP (secreted alkaline phosphatase) were treated with test compounds at appropriate doses for 1 hour at 37° C. The cells were then stimulated with tumour necrosis factor (TNF, 10 ng/ml) for 16 hours, at which time the amount of alkaline phosphatase produced is measured by a standard colourimetric assay. Dose response curves were constructed from which EC50 values were estimated.

Male CD rats = test: Rat model of thymus involution (systemic steroid effects); format: in vivo; conditions: daily for 3 days
Protocol: Systemic steroid effects were assessed in a rat model of thymus involution. Male CD rats were dosed intra-tracheally daily for 3 days with saline vehicle (20 μl Tween 80 in 100 ml saline) or with a suspension of test compound (dose volume 200 μL). On day 4 the animals were culled and the thymus removed and weighed.

Balb/c mice = test: Oxazolone induced contact hypersensitivity model (ear swelling); format: in vivo; conditions: topical to right ear 1 hour prior to and 3 hours post oxazolone challenge; ear thickness 24 hours post challenge
Protocol: Pharmacological activity in vivo was assessed using an oxazolone induced contact hypersensitivity model in Balb/c mice similar to that described by Cumberbatch et al., Immunology (2002), 105, 466-477.
Balb/c female mice (18-20 g) were sensitised to oxazolone by the addition of 50 μl to the shaved right flank, of 2.5% oxazolone in acetone:olive oil (4:1). Control (unsensitised) mice were dosed with acetone:olive oil. Five days later all mice were challenged by the addition of 25 μl of 0.25% oxazolone in acetone olive oil (4:1) to the dorsal surface of both ears under isoflourane anaesthesia. 10 μl of solution of test compound at the appropriate concentration or vehicle (absolute ethanol) was applied to the dorsal surface of the right ear 1 hour prior to and 3 hours post oxazolone challenge under isoflourane anaesthesia. The left ear remained untreated to allow assessment of systemic exposure. Ear thickness measurements were taken using an engineer's micrometer prior to the addition of steroid and again 24 hours post oxazolone challenge. Results expressed as the percentage inhibition of ear swelling, from which EC50 values were calculated.

[2] = Hydrolysis in human plasma; format: in vitro ADME; conditions: 37°, 5 μg/ml, LC-MS/MS
Protocol: Compounds were incubated at 37° in human plasma at a concentration of 5 μg/ml. Aliquots were taken at time 0 and every 30 seconds for the next 10 minutes and were extracted by protein precipitation and analysed by LC-MS/MS.

Compound CC1CC2C3CC(F)C4=CC(=O)C=CC4(C)C3(F)C(O)CC2(C)C1(OC(=O)c1cc(Cl)sc1Cl)C(=O)SC1CCOC1=O (stereo not drawn) [Example 15, 17α-[(2,5-Dichlorothiophene-3-carbonyl)oxy]-6α,9α-difluoro-11β-hydroxy-16α-methyl-3-oxo-androsta-1,4-diene-17β-carbothioic acid S-(2-oxo-tetrahydro-furan-3S-yl)ester] has a pEC50 [1] of 7.80.
With Cc1noc(C)c1C(=O)OC1(C(=O)SC2CCOC2=O)C(C)CC2C3CC(F)C4=CC(=O)C=CC4(C)C3(F)C(O)CC21C (stereo not drawn) [Example 11, 6α,9α-Difluoro-17α-[(3,5-dimethylisoxazole-4-carbonyl)oxy]-11β-hydroxy-16α-methyl-3-oxo-androsta-1,4-diene-17β-carbothioic acid S-(2-oxo-tetrahydro-furan-3S-yl)ester] the pEC50 [1] was 7.55.
In the case of CCCC1O[C@@H]2C[C@H]3[C@@H]4CCC5=CC(=O)C=C[C@]5(C)[C@H]4[C@@H](O)C[C@]3(C)[C@]2(C(=O)CO)O1 (stereo partly shown) [budesonide, reference compound], the “reduction in thymus weight” value (Male CD rats; 100 mg/day intra-tracheally) was 65%.
For COc1c(C(=O)OC2(C(=O)SC3CCOC3=O)C(C)CC3C4CC(F)C5=CC(=O)C=CC5(C)C4(F)C(O)CC32C)csc1Cl (stereo not drawn) [Example 12, 17α-[(5-Chloro-4-methoxy-thiophene-3-carbonyl)oxy]-6α,9α-difluoro-11β-hydroxy-16α-methyl-3-oxo-androsta-1,4-diene-17β-carbothioic acid S-(2-oxo-tetrahydro-furan-3S-yl)ester], the pEC50 [1] was 7.40.
In the case of C[C@@H]1C[C@H]2[C@@H]3C[C@H](F)C4=CC(=O)C=C[C@]4(C)[C@@]3(F)[C@@H](O)C[C@]2(C)[C@@]1(OC(=O)c1ccco1)C(=O)S[C@H]1CCOC1=O [Example 1, 6α,9α-Difluoro-17α-[(2-furanylcarbonyl)oxy]-11β-hydroxy-16α-methyl-3-oxo-androsta-1,4-diene-17β-carbothioic acid S-(2-oxo-tetrahydro-furan-3S-yl)ester], the “EC50 (inhibition of ear swelling)” value (Balb/c mice) was 0.3 µg, the “effect on thymus weight” value (Male CD rats; 1000 μg/day intra-tracheally) was “no effect” and the half-life [2] was 1.2 min.
